Assay results: patent US9226916B2, “Pyrrolidine derivatives” (HOFFMANN-LA ROCHE INC., priority 2009, dated 2016)
Read-outs that look alike come from different tables or passages of the source.

Molecular target: T1, recombinant human NK3 receptor (Homo sapiens, UniProt P29371)
T1 construct: expressed in transfected cells; host or cells: HEK293 cells, transient expression; membranes
T1 sequence (P29371 1-465): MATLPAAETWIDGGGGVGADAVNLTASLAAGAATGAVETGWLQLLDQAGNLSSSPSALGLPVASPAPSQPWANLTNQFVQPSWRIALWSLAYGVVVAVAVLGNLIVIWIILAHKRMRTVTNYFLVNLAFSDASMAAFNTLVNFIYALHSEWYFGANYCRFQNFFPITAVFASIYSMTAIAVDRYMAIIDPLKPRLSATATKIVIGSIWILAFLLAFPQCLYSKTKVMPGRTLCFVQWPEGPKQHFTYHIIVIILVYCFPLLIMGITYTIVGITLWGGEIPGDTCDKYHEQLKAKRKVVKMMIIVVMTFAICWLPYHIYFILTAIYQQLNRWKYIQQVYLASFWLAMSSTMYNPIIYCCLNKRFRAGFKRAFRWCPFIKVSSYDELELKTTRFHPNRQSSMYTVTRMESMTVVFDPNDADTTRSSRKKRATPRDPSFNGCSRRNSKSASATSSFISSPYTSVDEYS
Assay: [3H]SR142801 competition binding assay

[1] = hNK-3 receptor affinity, membranes from HEK293 cells transiently expressing recombinant human NK3 receptor, [3H]SR142801, Cheng-Prussoff, read-out: Data Ki

Row | SMILES | Ki [nM] | Ki [1] [nM]
1 | CN(C(=O)Oc1ccc(F)cc1)[C@@H]1CN(C(=O)C2CCC(F)(F)CC2)C[C@H]1c1ccc(Cl)cc1 [Example 117, [(3S,4R)-4-(4-Chloro-phenyl)-1-(4,4-difluoro-cyclohexanecarbonyl)-pyrrolidin-3-yl]-methyl-carbamic acid 4-fluoro-phenyl ester] | 17.4 | 
2 | Cc1ccc(N2CCC(C(=O)N3C[C@@H](N(C)C(=O)Oc4ccc(F)cc4)[C@H](c4ccc(Cl)cc4)C3)CC2)nn1 [Example 118, {(3S,4R)-4-(4-Chloro-phenyl)-1-[1-(6-methyl-pyridazin-3-yl)-piperidine-4-carbonyl]-pyrrolidin-3-yl}-methyl-carbamic acid 4-fluoro-phenyl ester] | 0.3 | 
3 | CN(C(=O)Oc1ccc(F)cc1)[C@H]1CN(C(=O)C2CCN(c3ccc(C#N)cn3)CC2)C[C@@H]1c1ccc(Cl)cc1 [Example 122, [(3R,4S)-4-(4-Chloro-phenyl)-1-(5′-cyano-3,4,5,6-tetrahydro-2H-[1,2′]bipyridinyl-4-carbonyl)-pyrrolidin-3-yl]-methyl-carbamic acid 4-fluoro-phenyl ester] | 19 | 
4 | CN(C(=O)O[C@H]1CC[C@H](C(F)(F)F)CC1)[C@H]1CN(C(=O)C2CCN(c3ccc(C#N)cn3)CC2)C[C@@H]1c1ccc(Cl)cc1 [Example 125, [(3R,4S)-4-(4-Chloro-phenyl)-1-(5′-cyano-3,4,5,6-tetrahydro-2H-[1,2′]bipyridinyl-4-carbonyl)-pyrrolidin-3-yl]-methyl-carbamic acid 4-trifluoromethyl-cyclohexyl ester] |  | 50.9
5 | CN(C(=O)O[C@H]1CC[C@H](C(F)(F)F)CC1)[C@@H]1CN(C(=O)C2CCN(c3ccc(C#N)cn3)CC2)C[C@H]1c1ccc(Cl)cc1 [Example 126, [(3S,4R)-4-(4-Chloro-phenyl)-1-(5′-cyano-3,4,5,6-tetrahydro-2H-[1,2′]bipyridinyl-4-carbonyl)-pyrrolidin-3-yl]-methyl-carbamic acid 4-trifluoromethyl-cyclohexyl ester] |  | 1.2
6 | CN(C(=O)OCCCC(F)(F)F)[C@@H]1CN(C(=O)C2CCN(c3ccc(C#N)cn3)CC2)C[C@H]1c1ccc(Cl)cc1 [Example 127, [(3S,4R)-4-(4-Chloro-phenyl)-1-(5′-cyano-3,4,5,6-tetrahydro-2H-[1,2′]bipyridinyl-4-carbonyl)-pyrrolidin-3-yl]-methyl-carbamic acid 4,4,4-trifluoro-butyl ester] | 4 | 
7 | CN(C(=O)OCCCC(F)(F)F)[C@H]1CN(C(=O)C2CCN(c3ccc(C#N)cn3)CC2)C[C@@H]1c1ccc(Cl)cc1 [Example 128, [(3R,4S)-4-(4-Chloro-phenyl)-1-(5′-cyano-3,4,5,6-tetrahydro-2H-[1,2′]bipyridinyl-4-carbonyl)-pyrrolidin-3-yl]-methyl-carbamic acid 4,4,4-trifluoro-butyl ester] | 68 | 
8 | CN(C(=O)Oc1ccc(F)cc1)[C@@H]1CN(C(=O)C2CCN(C(=O)C3(C)CC3)CC2)C[C@H]1c1ccc(F)cc1 [Example 129, {(3S,4R)-4-(4-Fluoro-phenyl)-1-[1-(1-methyl-cyclopropanecarbonyl)-piperidine-4-carbonyl]-pyrrolidin-3-yl}-methyl-carbamic acid 4-fluoro-phenyl ester] | 13.7 | 
9 | CN(C(=O)Oc1ccc(F)cc1)[C@@H]1CN(C(=O)C2CCN(c3ccc(C#N)cn3)CC2)C[C@H]1c1ccc(F)cc1 [Example 131, [(3S,4R)-1-(5′-Cyano-3,4,5,6-tetrahydro-2H-[1,2′]bipyridinyl-4-carbonyl)-4-(4-fluoro-phenyl)-pyrrolidin-3-yl]-methyl-carbamic acid 4-fluoro-phenyl ester] | 1 | 
10 | CN(C(=O)Oc1ccc(F)cc1)[C@H]1CN(C(=O)C2CCN(c3ccc(C#N)cn3)CC2)C[C@@H]1c1ccc(F)cc1 [Example 132, [(3R,4S)-1-(5′-Cyano-3,4,5,6-tetrahydro-2H-[1,2′]bipyridinyl-4-carbonyl)-4-(4-fluoro-phenyl)-pyrrolidin-3-yl]-methyl-carbamic acid 4-fluoro-phenyl ester] | 55.6 | 
11 | CN(C(=O)Oc1ccc(F)cc1)[C@@H]1CN(C(=O)C2CCN(C(=O)OC(C)(C)C)CC2)C[C@H]1c1ccc(Cl)cc1 [Example 133, 4-{(3R,4S)-3-(4-Chloro-phenyl)-4-[(4-fluoro-phenoxycarbonyl)-methyl-amino]-pyrrolidine-1-carbonyl}-piperidine-1-carboxylic acid tert-butyl ester] | 3 | 
12 | Cc1nnc(N2CCC(C(=O)N3C[C@@H](N(C)C(=O)Oc4ccc(F)cc4)[C@H](c4ccc(Cl)cc4)C3)CC2)o1 [Example 134, {(3S,4R)-4-(4-Chloro-phenyl)-1-[1-(5-methyl-[1,3,4]oxadiazol-2-yl)-piperidine-4-carbonyl]-pyrrolidin-3-yl}-methyl-carbamic acid 4-fluoro-phenyl ester] | 3.6 | 
13 | CN(C(=O)Oc1ccc(F)cc1)[C@@H]1CN(C(=O)C2CCNCC2)C[C@H]1c1ccc(Cl)cc1 [Example 135, [(3S,4R)-4-(4-Chloro-phenyl)-1-(piperidine-4-carbonyl)-pyrrolidin-3-yl]-methyl-carbamic acid 4-fluoro-phenyl ester] | 40.3 | 
14 | CCCOC(=O)N(C)[C@@H]1CN(C(=O)C2CCN(c3ccc(C#N)cn3)CC2)C[C@H]1c1ccc(Cl)cc1 [Example 138, [(3S,4R)-4-(4-Chloro-phenyl)-1-(5′-cyano-3,4,5,6-tetrahydro-2H-[1,2′]bipyridinyl-4-carbonyl)-pyrrolidin-3-yl]-methyl-carbamic acid propyl ester] | 37.1 | 
15 | CC(C)COC(=O)N(C)[C@@H]1CN(C(=O)C2CCN(c3ccc(C#N)cn3)CC2)C[C@H]1c1ccc(Cl)cc1 [Example 139, [(3S,4R)-4-(4-Chloro-phenyl)-1-(5′-cyano-3,4,5,6-tetrahydro-2H-[1,2′]bipyridinyl-4-carbonyl)-pyrrolidin-3-yl]-methyl-carbamic acid isobutyl ester] | 3.9 | 
16 | CN(C(=O)Oc1ccc(F)cc1)[C@@H]1CN(C(=O)C2CCN(c3ccc(C#N)nn3)CC2)C[C@H]1c1ccc(Cl)cc1 [Example 140, {(3S,4R)-4-(4-Chloro-phenyl)-1-[1-(6-cyano-pyridazin-3-yl)-piperidine-4-carbonyl]-pyrrolidin-3-yl}-methyl-carbamic acid 4-fluoro-phenyl ester] | 0.9 | 
17 | CC(C)COC(=O)N(C)[C@@H]1CN(C(=O)C2CCN(C(=O)C3(C)CC3)CC2)C[C@H]1c1ccc(Cl)cc1 [Example 141, {(3S,4R)-4-(4-Chloro-phenyl)-1-[1-(1-methyl-cyclopropanecarbonyl)-piperidine-4-carbonyl]-pyrrolidin-3-yl}-methyl-carbamic acid isobutyl ester] | 13.5 | 
18 | CN(C(=O)OC1CCCCC1)[C@@H]1CN(C(=O)C2CCN(c3ccc(C#N)cn3)CC2)C[C@H]1c1ccc(Cl)cc1 [Example 143, [(3S,4R)-4-(4-Chloro-phenyl)-1-(5′-cyano-3,4,5,6-tetrahydro-2H-[1,2′]bipyridinyl-4-carbonyl)-pyrrolidin-3-yl]-methyl-carbamic acid cyclohexyl ester] |  | 3.2
19 | CN(C(=O)OCCC(F)(F)F)[C@@H]1CN(C(=O)C2CCN(c3ccc(C#N)cn3)CC2)C[C@H]1c1ccc(Cl)cc1 [Example 144, [(3S,4R)-4-(4-Chloro-phenyl)-1-(5′-cyano-3,4,5,6-tetrahydro-2H-[1,2′]bipyridinyl-4-carbonyl)-pyrrolidin-3-yl]-methyl-carbamic acid 3,3,3-trifluoro-propyl ester] |  | 21.1
